Measured values as given in patent publication US7767666B2, “Butyl and butynyl benzyl amine compounds” (Janssen Pharmaceutica NV, priority 2006, dated 2010).

Columns and labels:
[1] = biological target: T1, human H3 receptor (Homo sapiens, UniProt Q9Y5N1); assay: H3 receptor binding; conditions: cloned human H3 receptor stably expressed in SK-N-MC cells
T1 construct: expressed in transfected cells

[2] = biological target: T2, Rat SERT (Rattus norvegicus, UniProt P31652); assay: Rat brain SERT [3H]-citalopram binding; conditions: rat brain membranes, 0.6 nM [3H]-Citalopram, 60 min at 25° C.
T2 construct: A rat brain without cerebellum (Zivic Laboratories, Inc.—Pittsburgh, Pa.) was homogenized; tissue Zivic Laboratories, Inc; host or cells: rat brain without cerebellum, membrane preparation
Experimental: The supernatant was removed and re-centrifuged at 15,000 rpm for 30 min. […] Membranes were incubated with 0.6 nM [^3H]-Citalopram plus/minus test compounds for 60 min at 25° C. and harvested by rapid filtration over GF/C glass fiber filters (pretreated with 0.3% polyethylenimine) followed by four washes with ice-cold buffer.

[3] = biological target: T3, human SERT (Homo sapiens, UniProt P31645); assay: Human SERT 3H-citalopram binding; conditions: HEK293 membranes expressing the human SERT, rt 1 h
T3 construct: expressed in transfected cells; host or cells: HEK293 membranes
Experimental: Homogenized HEK293 (Human Embryonic Kidney) membranes expressing the human SERT were incubated with ^3H-citalopram (SERT) at rt for 1 h in 50 mM Tris, 120 mM NaCl, 5 mM KCl (pH 7.4). […] The membranes were washed and the radioactivity was counted as above.

[4] = biological target: T1, human H3 receptor; assay: Cyclic AMP accumulation (β-galactosidase reporter); type: cell-based; conditions: for pA2: SK-N-MC cells expressing human H3 receptor and reporter, histamine agonist, forskolin 5 μM, Schild regression of pEC50 values
Experimental: Sublines of SK—N-MC cells were created that expressed a reporter construct and the human H3 receptor. The reporter gene (β-galactosidase) is under the control of multiple cyclic AMP responsive elements. In 96-well plates, histamine was added directly to the cell media followed 5 min later by an addition of forskolin (5 μM final concentration). When appropriate, antagonists were added 10 min prior to agonist addition. After a 6-h incubation at 37° C., the media was aspirated and the cells washed with 200 μL of phosphate-buffered saline followed by a second aspiration. Cells were lysed with 25 μL 0.1× assay buffer (10 mM Na-phosphate, pH 8, 0.2 mM MgSO4, 0.01 mM MnCl2) and incubated at rt for 10 min. […] Color was developed using 25 μL of 1 mg/mL substrate solution (chlorophenolred β-D galactopyranoside; Roche Molecular Biochemicals, Indianapolis, Ind.).

T3 sequence (P31645 whole entry): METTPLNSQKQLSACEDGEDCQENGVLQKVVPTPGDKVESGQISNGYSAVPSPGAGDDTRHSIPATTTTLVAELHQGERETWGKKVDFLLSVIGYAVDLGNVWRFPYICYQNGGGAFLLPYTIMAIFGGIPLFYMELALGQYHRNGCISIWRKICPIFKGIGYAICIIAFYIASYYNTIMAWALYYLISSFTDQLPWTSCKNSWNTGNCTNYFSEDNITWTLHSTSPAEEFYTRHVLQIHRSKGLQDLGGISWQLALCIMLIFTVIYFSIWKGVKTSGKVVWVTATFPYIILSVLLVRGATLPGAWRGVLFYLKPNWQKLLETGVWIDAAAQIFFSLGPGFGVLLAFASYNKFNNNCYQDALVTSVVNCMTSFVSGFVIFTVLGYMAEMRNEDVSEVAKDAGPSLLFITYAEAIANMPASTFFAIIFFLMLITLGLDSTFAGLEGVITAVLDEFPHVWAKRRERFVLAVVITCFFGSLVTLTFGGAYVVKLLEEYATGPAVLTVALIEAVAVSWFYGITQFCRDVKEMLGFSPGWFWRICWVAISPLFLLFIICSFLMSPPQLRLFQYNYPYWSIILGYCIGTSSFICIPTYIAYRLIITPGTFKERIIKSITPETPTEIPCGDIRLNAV
T2 sequence (P31652 whole entry): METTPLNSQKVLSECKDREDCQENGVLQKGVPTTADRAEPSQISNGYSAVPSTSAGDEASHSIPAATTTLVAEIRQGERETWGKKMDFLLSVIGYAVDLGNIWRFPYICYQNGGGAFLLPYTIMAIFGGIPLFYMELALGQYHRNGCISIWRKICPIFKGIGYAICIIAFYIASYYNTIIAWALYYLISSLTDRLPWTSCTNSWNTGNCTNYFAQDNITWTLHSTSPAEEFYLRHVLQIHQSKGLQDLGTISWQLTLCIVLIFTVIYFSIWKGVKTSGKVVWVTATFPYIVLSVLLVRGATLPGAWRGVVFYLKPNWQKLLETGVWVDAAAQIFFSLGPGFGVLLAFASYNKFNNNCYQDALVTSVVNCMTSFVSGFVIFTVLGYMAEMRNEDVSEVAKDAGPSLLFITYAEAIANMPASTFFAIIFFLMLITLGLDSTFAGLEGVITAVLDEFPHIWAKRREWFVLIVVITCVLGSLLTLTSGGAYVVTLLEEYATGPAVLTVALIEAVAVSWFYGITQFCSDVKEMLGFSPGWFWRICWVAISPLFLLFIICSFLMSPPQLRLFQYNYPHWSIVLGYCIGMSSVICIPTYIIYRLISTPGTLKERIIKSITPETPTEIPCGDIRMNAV
T1 sequence (Q9Y5N1 whole entry): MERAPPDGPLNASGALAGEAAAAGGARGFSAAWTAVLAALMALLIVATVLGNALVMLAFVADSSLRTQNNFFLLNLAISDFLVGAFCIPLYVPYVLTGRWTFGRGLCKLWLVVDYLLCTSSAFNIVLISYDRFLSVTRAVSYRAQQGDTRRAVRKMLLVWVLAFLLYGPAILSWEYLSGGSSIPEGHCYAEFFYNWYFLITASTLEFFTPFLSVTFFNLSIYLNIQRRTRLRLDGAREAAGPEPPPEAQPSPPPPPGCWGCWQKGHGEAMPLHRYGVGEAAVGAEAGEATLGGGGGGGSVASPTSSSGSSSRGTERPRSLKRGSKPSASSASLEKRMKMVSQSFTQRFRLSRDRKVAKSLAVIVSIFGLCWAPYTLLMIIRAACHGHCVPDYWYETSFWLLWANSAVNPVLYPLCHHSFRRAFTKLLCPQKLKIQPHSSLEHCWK

SMILES	Ki [1] [nM]	Ki [2] [nM]	Ki [3] [nM]	pA2 [4]	Kb ([4]; read-out: pA2 (converted)) [nM]
CNCc1cc(C#CCCN2CCC(F)CC2)ccc1Oc1ccc(SC)cc1 [Example 11, [5-[4-(4-Fluoro-piperidin-1-yl)-but-1-ynyl]-2-(4-methylsulfanyl-phenoxy)-benzyl]-methyl-amine]	6	0.6	0.9	8.12	
CNCc1cc(C#CCCN2CCOCC2)ccc1Oc1ccc(C(F)(F)F)cc1 [Example 7, Methyl-[5-(4-morpholin-4-yl-but-1-ynyl)-2-(4-trifluoromethyl-phenoxy)-benzyl]-amine]	7.3	2	2.7	7.90	
CNCc1cc(C#CCCN2CCOCC2)ccc1Oc1ccc(Cl)c(C(F)(F)F)c1 [Example 27, [2-(4-Chloro-3-trifluoromethyl-phenoxy)-5-(4-morpholin-4-yl-but-1-ynyl)-benzyl]-methyl-amine]	13	7.3	17	7.89	
C(#Cc1ccc(Oc2cccnc2)c(CNC2CC2)c1)CCN1CCOCC1 [Example 23, Cyclopropyl-[5-(4-morpholin-4-yl-but-1-ynyl)-2-(pyridine-3-yloxy)-benzyl]-amine]	0.7	18	58		0.251
CNCc1cc(C#CCCN2CCOCC2)ccc1Oc1ccc(F)cc1Cl [Example 28, [2-(2-Chloro-4-fluoro-phenoxy)-5-(4-morpholin-4-yl-but-1-ynyl)-benzyl]-methyl-amine]	6	3.4	3.6	8.78	
CNCc1cc(C#CCCN2CCOCC2)ccc1Oc1cccc(Cl)c1 [Example 12, [2-(3-Chloro-phenoxy)-5-(4-morpholin-4-yl-but-1-ynyl)-benzyl]-methyl-amine]	3	3	7.3	8.58	
